Earlier results in patent US20050226814A1, “Diagnostic method and kit for implantation of a sustained release drug-delivery implant with a steroid” (Bausch & Lomb Incorporated, priority 2004, published 2005).

Legend:
[1] = test system: proliferative vitreoretinopathy; conditions: injected into the sub-conjuctival area
[2] = test system: retinochoroid disorders; conditions: injection into the eye of a patient

| SMILES | effect on proliferative vitreoretinopathy [1] | long-term effect [2] |
| --- | --- | --- |
| C[C@]12CCC(=O)C=C1CC[C@@H]1[C@@H]2[C@@H](O)C[C@@]2(C)[C@H]1CC[C@]2(O)C(=O)CO [hydrocortisone] | inhibited proliferative vitreoretinopathy |  |
| C[C@]12C=CC(=O)C=C1CC[C@H]1[C@@H]3C[C@@H](O)[C@](O)(C(=O)CO)[C@@]3(C)C[C@H](O)[C@@]12F [trimacinolone, triamcinolone] |  | did not have a significantly long-term effect |
